Measurements: patent US12594259B2, “Treatment regimen for the treatment of neurological diseases or conditions” (ACCURE THERAPEUTICS, S.L., priority 2019, dated 2026)
“Also recorded” adds a separate entry of the source. Like-named read-outs stand apart in the source and are kept apart here.

How the values were obtained:
[1] = Plasma pharmacokinetics of BN201 in rats (LC-MS/MS, WinNonlin); format: in vivo, Sprague Dawley Rat; settings: 7 doses, Mean ± SEM; for Vd: iv, 25 mg/kg; for AUC(0-inf) / AUC(0-t) / Cmax / Tmax / half-life / AUC_%Extrap (obs): rat plasma
Protocol: (§1) • Receipt of animals (Male Sprague Dawley Rats, Age: 12-13 weeks, Body weight range at the time of study initiation: 306.8 — 385.2 g) and acclimatization of animals for a period of at least one week • Day 0: Administration of Lysolecithin in optic nerve • Administration of test compound (BN201) daily (Day 0 to day 6=7 doses in total) intra-peritoneally (IP) at various doses (10 mg/Kg, 25 mg/Kg, 70 mg/Kg) and Intravenously (infusion 25 mg/Kg) over 2 h for block1. • On day 6, Sampling of blood from block1 for plasma at predetermined time points (8-9 time points) for PK and tissue collection (Eye and optic nerve) for histopathological assessment. • Determination of plasma levels of BN201 by LC-MS/MS • Determination of Pharmacokinetic Parameters of BN201 by WinNonlin Analysis • Test compound administration (IP@10 & 25 mg/Kg) once daily (Day 0 to day 6=7 doses in total) for block2; Tissue collection (Eye and optic nerve collection during termination of the study) on day 14, and 28 for histopathological assessment. 3. Animal Conditioning
(§2) • Group 1 and 2 served as sham and pathological control respectively and only saline was administered • Test compound was delivered once at various doses (as mentioned above) through IP or IV infusion in the respective groups. The first dosage was given 1 hour after Lysolecithin injection and repeated once/day until the end of the experiment • On day 6, blood was collected at various time points after administration of test item for drug concentration measurement: • Group 3-5 (IP groups): Pre-dose, 0.25, 0.5, 1, 4, 8 h, 12 h & 24 h (8 time points) • Group 6 (IV Infusion group): Pre-dose, then the following times post infusion: Oh (end of the infusion), 0.25 h, 0.5 h, 1 h, 4 h, 8 h, 12 h & 24 h (9 time points) • ˜200 μL of blood per time point was collected from Jugular vein for all the time points in K2EDTA blood collection tubes and stored at 4° C. until plasma separation within 30 minutes. After plasma separation, all the plasma samples were stored in two aliquots at −80° C. until the completion of all the time points. Further, one aliquot of plasma samples was submitted together to the DMG/KG for drug concentration analysis. 9. Observation and Readouts 9.1 Body weight
Study samples were processed by protein precipitation method using cold acetonitrile. In brief, 10 μL of plasma was mixed with 200 μL of acetonitrile containing 100 ng/mL-Verapamil as internal standard. The contents were vortexed to ensure mixing and the precipitated protein was removed by centrifugation at 4000 rpm for 15 minutes at 4° C. The supernatant was collected and submitted for Bioanalysis.

[2] = test system: Lysolecithin induced optic neuritis in SD Rats; assay: Inflammation (H&E stained optic nerve) in lysolecithin induced acute optic neuritis model; format: in vivo, Sprague Dawley Rat; settings: BN201 treatment, conclusions over blocks 1 and 2
Protocol: as §1
Animals were anesthetized; the shaved skin was disinfected with 75% ethanol. […]
• Group 1 and 2 served as sham and pathological control respectively and only saline was administered • Test compound was delivered once at various doses (as mentioned above) through IP or IV infusion in the respective groups. […] Observation and Readouts 9.1 Body weight […]

[3] = test system: Lysolecithin induced optic neuritis in SD Rats; assay: Retinal ganglion cell (RGC) count in lysolecithin induced acute optic neuritis model; format: in vivo, Sprague Dawley Rat
Protocol: as §1
(§3) Animals were anesthetized; the shaved skin was disinfected with 75% ethanol. A 1 cm incision was made in the skin above the orbit of an eye. The lacrimal glands and extraocular muscles were resected to expose 3 mm of the optic nerve under an operating microscope. The dura and arachnoid matter around the optic nerve were opened longitudinally. A small amount of dye was placed on the dura to show the microinjection site. This is done to identify the focal lesion for the histology. Microinjection was performed with a glass micropipette attached to a Hamilton syringe. The pipette was inserted into the optic nerve as superficially as possible at 2 mm posterior to the globe, and 0.8 μL of 1% lysolecithin (with 0.02% Evan's Blue) was slowly pressure-injected into the nerve over approximately 30 seconds. The sham control rats (animals without disease) were injected with 0.02% Evan's Blue in 0.8 μL saline without lysolecithin. After the injection, the skin incision was sutured, and antibiotic solution were administered to prevent infection.
as §2
(§4) • Animals were euthanized on Day 7 with CO2 and were perfused transcardially with saline and 4% paraformaldehyde. Optic nerves (from globe to chiasm) and eye were removed and were fixed in 1% paraformaldehyde overnight. Eye from all the animals were collected in Davidson's fixative. • All tissues were processed in an automatic tissue processor and embedded in paraffin. Five-micro meter-thick (5 μm) transverse sections were made at the site of injections (at the place of the dye) using a rotary microtome. • Serial sections of each optic nerve were obtained (4-6 sections). […]

[4] = test system: Lysolecithin induced optic neuritis in SD Rats; assay: Demyelination score (Luxol fast blue stained optic nerve) in lysolecithin induced acute optic neuritis model; format: in vivo, Sprague Dawley Rat
Protocol: as §1, §3, §2, §4

[5] = Body weight in lysolecithin induced acute optic neuritis study; format: in vivo, Sprague Dawley Rat; settings: Blocks 1 & 2, compared to pathological control group
Protocol: Body weight measurement was performed every morning from day 0 to day 7. All animals were observed regularly for clinical signs.

[6] = Phase 1 trial in healthy volunteers (pharmacokinetics); format: in vivo; settings: humans
[7] = test system: serum-glucocorticoid (SGK) pathway; settings: cited from earlier work
[8] = test system: Lysolecithin induced optic neuritis in SD Rats; assay: Axonal loss score (BSS stained optic nerve) in lysolecithin induced acute optic neuritis model; format: in vivo, Sprague Dawley Rat
Protocol: as §1, §3, §2, §4

[9] = test system: Lysolecithin induced optic neuritis in SD Rats; assay: Overall efficacy in lysolecithin induced acute optic neuritis model; format: in vivo, Sprague Dawley Rat; settings: daily IV 25 mg/Kg (2 h infusion) compared to 10, 25 and 70 mg/Kg IP
Protocol: The aim of Block1 was to determine the efficacy of BN201 administered intraperitoneally at various doses (10 mg/Kg, 25 mg/Kg, 70 mg/Kg) and intravenously at 25 mg/Kg in Lysolecithin induced optic neuritis in SD Rats (7 days study).
The aim of Block2 was to determine the efficacy of BN201 in long duration model of lysolecithin induced optic neuritis in SD rats (14 and 28 day study) […]
• Group 1 and 2 served as sham and pathological control respectively and only saline was administered • Test compound was delivered once at various doses (as mentioned above) through IP or IV infusion in the respective groups. […] Observation and Readouts 9.1 Body weight

[10] = male, Sprague Dawley, IP 10 mg/Kg once daily
[11] = male, Sprague Dawley, IP 25 mg/Kg once daily
[12] = male, Sprague Dawley, IP 70 mg/Kg once daily
[13] = male, Sprague Dawley, IV infusion 25 mg/Kg over 2 h once daily
[14] = BN201 treatment, short term and long term, summary vs untreated groups
[15] = Block 2, day 28, 25 mg/Kg IP day 0 to day 6, vs placebo (p<0.05)

SMILES: CC(C)CN(CC(=O)N(CCCN1CCCC1=O)CC(N)=O)C(=O)CNCCc1ccccc1F [BN201, [N-(2-(2′-fluorophenyl)ethyl)-glycyl]-[N-(2-methylpropyl)-glycyl]-N-[3-(2′-oxopyrrolidinyl)-propyl]glycinamide]
- MRT inf ([1]; male, Sprague Dawley, plasma, rat, IV infusion 25 mg/Kg over 2 h once daily): 3 h
- clearance ([1]; male, Sprague Dawley, plasma, rat, IV infusion 25 mg/Kg over 2 h once daily, read-out: CLp (converted)): 31.7 mL/min/kg
- Vd ([1]; male, Sprague Dawley, rat, plasma, rat, IV infusion 25 mg/Kg over 2 h once daily, read-out: Vd): 15.8 ± 2.2 L/kg
- Vd ([1]; male, Sprague Dawley, rat, plasma, rat, IV infusion 25 mg/Kg over 2 h once daily, read-out: Vdss): 5.7 ± 1.2 L/kg
- AUC(0-inf) [1, 10]: 6990 ng·h/mL
- AUC(0-t) [1, 10]: 6920 ± 385 ng·h/mL
- Cmax [1, 10]: 6680 ± 349 ng/mL
- Tmax [1, 10]: 0.3 h
- half-life [1, 10]: 5.5 ± 0.9 h
- AUC(0-inf) [1, 11]: 14700 ± 840 ng·h/mL
- AUC(0-t) [1, 11]: 14500 ± 859 ng·h/mL
- Cmax [1, 11]: 14400 ± 1540 ng/mL
- Tmax [1, 11]: 0.3 h
- half-life [1, 11]: 5.8 ± 0.2 h
- AUC(0-inf) [1, 12]: 62800 ± 2760 ng·h/mL
- AUC(0-t) [1, 12]: 62400 ± 2720 ng·h/mL
- Cmax [1, 12]: 34700 ± 2010 ng/mL
- Tmax [1, 12]: 0.3 h
- half-life [1, 12]: 4.7 ± 0.8 h
- AUC(0-inf) [1, 13]: 15400 ± 1810 ng·h/mL
- AUC(0-t) [1, 13]: 15100 ± 1780 ng·h/mL
- Cmax [1, 13]: 10400 ± 1320 ng/mL
- Tmax [1, 13]: 2 h
- half-life [1, 13]: 6.2 ± 0.9 h
- AUC_%Extrap (obs) ([1]; IP 10 mg/Kg once daily): 1 ± 0.2%
- AUC_%Extrap (obs) ([1]; IP 25 mg/Kg once daily): 1 ± 0.3%
- AUC_%Extrap (obs) ([1]; IP 70 mg/Kg once daily): 0.5 ± 0.1%
- AUC_%Extrap (obs) ([1]; IV infusion 25 mg/Kg over 2 h once daily): 1.6 ± 0.2%
- inflammation [2]: reduced inflammation
- retinal ganglion cells [3, 14]: significant improvement in retinal ganglion cells
- protection against retinal ganglion cell loss ([3]; Block 1, day 7, 25 mg/Kg IP): 48%
- protection against retinal ganglion cell loss ([3]; Block 1, day 7, 70 mg/Kg IP): 69%
- RGC count ([3]; Block 1, day 7, BN201 treated groups vs pathological control): trend of increased RGC count
- RGC count ([3]; Block 1, day 7, IV infusion 25 mg/Kg vs pathological control): statistically significant improvement in RGC count
- RGC count [3, 15]: improvements; also recorded: significantly higher
- demyelination [4, 14]: reduced; also recorded: significant improvement
- protection against demyelination (demyelination score) ([4]; Block 1, day 7, 10 mg/Kg IP): 13%
- protection against demyelination (demyelination score) ([4]; Block 1, day 7, 25 mg/Kg IP): 15%
- protection against demyelination ([4]; Block 1, day 7, 25 mg/Kg IV infusion): 22%
- protection against demyelination (demyelination score) ([4]; Block 1, day 7, 70 mg/Kg IP): 44%
- Demyelination score ([4]; Block 2, day 28, 10 mpk IP day 0 to day 6, vs placebo (p<0.05)): significantly lower
- Demyelination score ([4]; Block 2, day 28, 25 mpk IP day 0 to day 6, vs placebo (p<0.05)): significantly lower
- Body weight [5]: did not significantly change the body weight
- half-life ([6]; human, in vivo): ≤ 8 h
- clearance of the drug [6]: quick clearance
- drug accumulation [6]: lack of drug accumulation
- activation of the SGK pathway, including phosphorylation of Foxo3 or NDRG1 [7]: activates the serum-glucocorticoid (SGK) pathway
- axonal loss ([8]; BN201 treatment, conclusions over blocks 1 and 2): reduced
- protection against axonal loss (axonal loss score) ([8]; Block 1, day 7, 10, 25 and 70 mg/Kg IP): 36-39%
- protection against axonal loss ([8]; Block 1, day 7, IV infusion 25 mg/Kg): 62%
- Axonal loss score ([8]; Block 2, day 28, 10 mg/Kg IP day 0 to day 6, vs placebo (p<0.05)): significant reduction in axonal loss; also recorded: significantly lower
- Axonal loss score [8, 15]: significant reduction in axonal loss; also recorded: significantly lower
- protection of axons against injury ([8]; IP or IV, 10 to 70 mg/Kg/day for 6 days, short term (7 days) and long term (up to day 28 post-injury)): able to protect axons against injury
- protection against optic neuritis [9]: superior protection against optic neuritis
